Tests used:
Details in all cases: incubation time: 72 h
MCF-10A [1] = test: normalised response (% of control), CellTox Green; higher = less cell death (100 = DMSO, 0 = benzethonium chloride kill control)
Procedure, shortened: (§1)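 CellTox Green fluorescence (485/520 nm) and, after 10 min at room temperature, CellTiter-Glo luminescence were read from breast cancer cell lines incubated 72 h in 384-well plates. Cells were seeded as 20 µl suspension onto compound at 5 concentrations in 10-fold steps over a 10,000-fold range chosen per compound. Each plate was normalised to 0.1 % DMSO (100) and a positive kill control (0). Values are normalised signals, one per concentration.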

HDQ-P1 [2] = test: as above
Procedure, shortened: as §1

CAL-85-1 [3] = test: as above
Procedure, shortened: as §1

DU-4475 [4] = test: as above
Procedure, shortened: as §1

CAL-120 [5] = test: as above
Procedure, shortened: as §1

CAL-148 [6] = test: as above
Procedure, shortened: as §1

CAL-51 [7] = test: as above
Procedure, shortened: as §1

MFM-223 [8] = test: as above
Procedure, shortened: as §1

MDA-MB-231 [9] = test: as above
Procedure, shortened: as §1

BT-474 [10] = test: as above
Procedure, shortened: as §1

MDA-MB-436 [11] = test: as above
Procedure, shortened: as §1

HCC1937 [12] = test: as above
Procedure, shortened: as §1

MDA-MB-453 [13] = test: as above
Procedure, shortened: as §1

BT-549 [14] = test: as above
Procedure, shortened: as §1

Hs578T [15] = test: normalised response (% of control), CellTiter-Glo; higher = more viable cells (100 = DMSO, 0 = benzethonium chloride kill control)
Protocol: (§2)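 DSRT, 72 h incubation, CellTox Green / CellTiter-Glo readout. Signal is normalised to DMSO and benzethonium chloride controls. Value is the normalised response at the highest dose.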

SK-BR-3 = test: as above
Protocol: as §2

HCC1143 [16] = test: as above
Protocol: as §2

MCF-10A [17] = test: as above
Protocol: as §2

HDQ-P1 [18] = test: as above
Protocol: as §2

CAL-85-1 [19] = test: as above
Protocol: as §2

DU-4475 [20] = test: as above
Protocol: as §2

CAL-120 [21] = test: as above
Protocol: as §2

CAL-148 [22] = test: as above
Protocol: as §2

CAL-51 [23] = test: as above
Protocol: as §2

MFM-223 [24] = test: as above
Protocol: as §2

MDA-MB-231 [25] = test: as above
Protocol: as §2

BT-474 [26] = test: as above
Protocol: as §2

MDA-MB-436 [27] = test: as above
Protocol: as §2

HCC1937 [28] = test: as above
Protocol: as §2

MDA-MB-468 [29] = test: as above
Protocol: as §2

HCC1599 [30] = test: as above
Protocol: as §2

MDA-MB-453 [31] = test: as above
Protocol: as §2

BT-549 [32] = test: as above
Protocol: as §2

Hs578T [33] = test: normalised response (% of control), CellTox Green; higher = less cell death (100 = DMSO, 0 = benzethonium chloride kill control)
Procedure, shortened: as §1

HCC1143 [34] = test: as above
Procedure, shortened: as §1

MDA-MB-468 [35] = test: as above
Procedure, shortened: as §1

HCC1599 [36] = test: as above
Procedure, shortened: as §1

Row | SMILES | normalised response (MCF-10A [1]) [%] | normalised response (HDQ-P1 [2]) [%] | normalised response (CAL-85-1 [3]) [%] | normalised response (DU-4475 [4]) [%] | normalised response (CAL-120 [5]) [%] | normalised response (CAL-148 [6]) [%] | normalised response (CAL-51 [7]) [%] | normalised response (MFM-223 [8]) [%] | normalised response (MDA-MB-231 [9]) [%] | normalised response (BT-474 [10]) [%] | normalised response (MDA-MB-436 [11]) [%] | normalised response (HCC1937 [12]) [%] | normalised response (MDA-MB-453 [13]) [%] | normalised response (BT-549 [14]) [%] | normalised response (Hs578T [15]) [%] | normalised response (SK-BR-3) [%] | normalised response (HCC1143 [16]) [%] | normalised response (MCF-10A [17]) [%] | normalised response (HDQ-P1 [18]) [%] | normalised response (CAL-85-1 [19]) [%] | normalised response (DU-4475 [20]) [%] | normalised response (CAL-120 [21]) [%] | normalised response (CAL-148 [22]) [%] | normalised response (CAL-51 [23]) [%] | normalised response (MFM-223 [24]) [%] | normalised response (MDA-MB-231 [25]) [%] | normalised response (BT-474 [26]) [%] | normalised response (MDA-MB-436 [27]) [%] | normalised response (HCC1937 [28]) [%] | normalised response (MDA-MB-468 [29]) [%] | normalised response (HCC1599 [30]) [%] | normalised response (MDA-MB-453 [31]) [%] | normalised response (BT-549 [32]) [%] | normalised response (Hs578T [33]) [%] | normalised response (HCC1143 [34]) [%] | normalised response (MDA-MB-468 [35]) [%] | normalised response (HCC1599 [36]) [%]
1 | CCC(C)(C)C(=O)O[C@H]1C[C@@H](C)C=C2C=C[C@H](C)[C@H](CC[C@@H]3C[C@@H](O)CC(=O)O3)[C@H]21 [Simvastatin] (10000 nM) | 23.2 | 82.2 | 84.3 | 99 | 77.4 | 104 | 46.8 | 104 | -117 | 99.9 | 51.8 | 95.6 | 104 | 98.6 | 91.2 | 98.9 | 95.9 | 23.9 | 65 | 84.4 | 94.2 | 91.8 | 102 | 78.4 | 97.9 | 30 | 47.2 | 84.9 | 92.6 | 83.2 | 103 | 93.3 | 87.7 | – | – | – | –
2 | COc1cc2ncnc(Nc3ccc(F)c(Cl)c3)c2cc1NC(=O)/C=C/CN1CCCCC1 [Dacomitinib] (1000 nM) | 96.8 | 94.1 | 38.7 | 99.1 | 98.7 | 96.7 | 109 | 99.5 | 103 | – | – | – | 96.3 | 74.8 | 90.7 | 21.1 | 94 | 35.8 | 68.1 | 46.8 | 97.8 | 95.6 | 83.9 | 116 | 93.1 | 84.5 | 86.8 | 84.4 | 84.3 | 65.3 | 105 | 56.2 | 80.9 | 115 | 75.7 | 121 | 99.1
3 | O=C(O)c1ccc(-c2c[nH]c3ncc(-c4ccccc4)cc23)cc1C1CCCC1 (10000 nM) | 83.6 | 91 | 119 | 97.5 | 99.2 | 91.6 | 63.4 | 66.2 | 92.8 | 95.4 | 57.9 | – | 102 | 99.3 | 89 | 58.7 | 97.8 | 97.1 | 107 | 99.3 | 86.2 | 94.5 | 94.4 | 92.7 | 95 | 94.1 | 86.7 | 84.2 | 105 | 57 | 105 | 105 | 74.5 | 117 | 117 | 90.1 | 94
4 | CC(=O)Nc1ccc(C(=O)Nc2ccccc2N)cc1 [Tacedinaline] (1000 nM) | 77.3 | 104 | 92.3 | 99 | 101 | 97.9 | 96.2 | 105 | 111 | 97.7 | 107 | 83.6 | 98.2 | 114 | 92.1 | 98.9 | 100 | 99.7 | 98.5 | 103 | 98 | 105 | 95.2 | 113 | 99.7 | 95.7 | 95.2 | 95 | 97.2 | 108 | 120 | 98.7 | 107 | 99.3 | 75.3 | 58.9 | 98.2
5 | N#CCNC(=O)c1ccc(-c2ccnc(Nc3ccc(N4CCOCC4)cc3)n2)cc1 [Momelotinib] (10000 nM) | 90.5 | 100 | 54.6 | 95.5 | 97.4 | 100 | 85.1 | 97.5 | 19 | 101 | 78 | 102 | 70.6 | 31.3 | 41.4 | 55.1 | 66.6 | 43 | 87.1 | 43.7 | 64.8 | 50.2 | 97.3 | 58 | 67.2 | 46.8 | 55.8 | 71 | 84.5 | 22.2 | 96.8 | 104 | 23.5 | 87 | 98 | 22 | 90
